{"source": "patent US20230355605A1", "about": "“DRUG FOR ENHANCING FIBRINOLYTIC SYSTEM, AND USE THEREFOR” (priority 2020, published 2023)", "key": {"PAI-1": {"target": "T1, PAI-1 (Homo sapiens, UniProt P05121)", "T1 construct": "from tissue; host or cells: plasma of human subjects (phase I study)", "T1 sequence (P05121 24-402)": "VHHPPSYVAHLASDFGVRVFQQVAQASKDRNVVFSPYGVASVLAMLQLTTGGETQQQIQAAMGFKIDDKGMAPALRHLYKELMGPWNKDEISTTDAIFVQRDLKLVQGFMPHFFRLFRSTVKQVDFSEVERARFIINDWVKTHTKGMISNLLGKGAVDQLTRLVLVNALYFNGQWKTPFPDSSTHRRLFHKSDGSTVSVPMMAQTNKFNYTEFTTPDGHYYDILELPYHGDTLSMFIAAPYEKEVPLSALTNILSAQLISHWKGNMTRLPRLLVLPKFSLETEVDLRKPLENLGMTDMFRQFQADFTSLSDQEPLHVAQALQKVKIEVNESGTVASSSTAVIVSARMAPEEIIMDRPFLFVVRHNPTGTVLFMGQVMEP", "assay": "PAI-1 activity in blood, phase I repeated oral dose study", "type": "in vivo", "procedure": "The pharmacological activities (PAI-1 activity and t-PA activity) were evaluated using blood collected from the subjects before and after administration of the present compound or the placebo as test samples. Blood was collected before administration and 2, 4, and 8 hours after administration on the first day of the experiment (day 1) and day 7 after the start of the experiment, and on the other days, blood was collected once a day before administration (only before administration on days 2 to 6, day 8, and day 11 after the start of administration).\nAfter collecting blood samples from the subjects, the samples were treated with 3.2% citric acid salt and centrifuged at 4° C., 1,800 g for 10 minutes to obtain plasma. The collected plasma was used for measurement of PAI-1 activity and stored frozen at -80° C. or less until measurement.\nThe PAI-1 activity was measured using a human PAI-1 activity assay kit (produced by Molecular Innovations Inc.). In this system, a plasma sample collected from a subject is placed on a plate coated with urokinase plasminogen activator (uPA), PAI-1 in the sample is reacted with uPA, and then active PAI-1 bound to uPA is measured as PAI-1 activity using an antigen-antibody reaction with an anti-PAI-1 antibody by measuring the absorbance at a wavelength of 450 nm with a plate reader."}, "[1]": {"test_system": "Salmonella typhimurium TA100, TA1535, TA98, TA1537 and Escherichia coli WP2uvrA", "assay": "Mutagenicity study using bacteria (pre-incubation method)", "type": "cell-based", "conditions": "five strains; metabolic activation method and direct method", "procedure": "The gene mutagenicity by the present compound was examined using bacteria.\nA study was conducted in the presence of a metabolic activator (hereinafter referred to as a “metabolic activation method”) and in the absence of a metabolic activator (hereinafter referred to as a “direct method”) by a pre-incubation method, using three strains, i.e., Salmonella typhimurium TA100 and TA1535, and Escherichia coli WP2uvrA, to detect base pair substitution gene mutations, and two strains, i.e., Salmonella typhimurium TA98 and TA1537, to detect frameshift gene mutations."}, "[2]": {"test_system": "cynomolgus monkey model of saphenous arterial thrombus", "assay": "Cynomolgus monkey model of saphenous arterial thrombus (PIT model)", "type": "in vivo", "procedure": "The thrombus formation inhibitory effect of the present compound was evaluated using a cynomolgus monkey model of saphenous arterial thrombus (PIT model) .\nBefore the procedure, the present compound suspended in a 0.5% CMC-Na aqueous solution was orally administered to test groups of cynomolgus monkeys at dosages of 0.1, 0.3, 1, and 3 mg/kg. […] A light irradiation probe was placed on a saphenous artery of each cynomolgus monkey to cause thrombus formation by applying green light of 540 nm for 20 minutes at the time of intravenously administering rose bengal (20 mg/kg). A decrease in blood flow due to this thrombus formation was measured with a pulse Doppler blood flowmeter, and the thrombus formation inhibitory effect of the present compound was evaluated by measuring the occlusion time on the first day and the cumulative occlusion time."}, "[3]": {"test_system": "conscious cynomolgus monkeys", "assay": "Effect on cardiovascular and respiratory system (telemetry, blood gas)", "type": "in vivo, cynomolgus monkey", "conditions": "single oral dose, up to 300 mg/kg", "procedure": "The effect of the present compound on the cardiovascular system and the respiratory system was examined by a telemetry method and blood gas measurement using conscious cynomolgus monkeys. Systemic exposure of the test substance was also evaluated. Specifically, a control substance (a 0.5 w/v% carmellose sodium aqueous solution) and the present compound were orally administered at single ascending dosages at intervals of 7 days, and the heart rate, blood pressure (systolic blood pressure, diastolic blood pressure, and mean blood pressure), electrocardiogram (PR interval, QRS duration, QT interval, and QTc interval), respiratory rate, and body temperature were measured before administration and 1, 2, 4, 6, and 24 hours after administration on each administration day with the monkeys unanesthetized and unrestrained. Furthermore, before administration and 2, 6, and 24 hours after administration on each administration day, arterial blood was collected, and blood gases (oxygen partial pressure, carbon dioxide partial pressure, pH, and oxygen saturation) were measured. Systemic exposure was also evaluated by measuring the concentration of the test substance in plasma."}, "pregnant rats": {"test_system": "pregnant rats", "assay": "Embryo-fetal developmental toxicity study", "type": "in vivo, rat", "conditions": "oral, days 7 to 17 of gestation", "procedure": "The effect of oral administration of the present compound on embryo-fetal development was examined using rats. Specifically, the present compound was orally administered to pregnant rats from implantation to closure of the hard palate (days 7 to 17 of gestation), and the effect on the mothers, and embryos and fetuses was examined. Furthermore, the plasma concentration of the present compound after administration was measured, and its change was examined. During the study period, the general conditions of all of the animals were observed, and their body weights were measured; in the toxicity group, food consumption was measured; a Cesarean section test was performed on day 20 of gestation. Thereafter, fetal visceral and skeletal specimens were prepared, and a fetal examination was performed."}, "male Crl:CD(SD) rats": {"test_system": "male Crl:CD(SD) rats", "assay": "Effect on central nervous system (functional observational battery)", "type": "in vivo, rat", "conditions": "single oral dose, up to 300 mg/kg", "procedure": "The effect of the present compound on the central nervous system was examined by the functional observational battery (FOB) in rats, using male Crl:CD(SD) rats. Specifically, the present compound was orally administered to the rats in a single dose, and the rats were observed before administration and 0.5, 1, 2, 4, 8, and 24 hours after administration. To a control group (six rats), a 0.5 w/v% carmellose sodium aqueous solution (vehicle) was administered instead of the present compound in the same manner. […] Thus, it was considered that the present compound has no effect on the central nervous system up to a dosage of 300 mg/kg in single oral dose administration using rats."}, "rats": {"test_system": "rats", "assay": "Reproductive and developmental toxicity study (fertility and early embryogenesis)", "type": "in vivo, rat", "conditions": "oral, male and female rats", "description": "The effect of oral administration of the present compound on fertility and early embryogenesis up to implantation was examined using rats. Specifically, the present compound was orally administered to male and female rats for 2 weeks before mating, during mating, until the day before necropsy for the males, and until day 7 of gestation for the females, and the effect on fertility and early embryogenesis of the parents was examined. During the study period, the general conditions, body weights, and food consumption of all of the animals were observed and measured, and a fertility test was performed for the males and females. For the females, an estrous cycle test was performed, and a Cesarean section test was performed at day 13 of gestation. In the females, necropsy was performed at the time of Cesarean section, and in the males, necropsy was performed after completion of the Cesarean section of females."}}}
{"smiles": "O=C(Nc1ccc(Cl)cc1C(=O)[O-])c1cccc(-c2cccc3cccnc23)c1.[Na+]", "note": "[present compound, sodium 5-chloro-2-({ [3-(quinolin-8-yl)phenyl]carbonyl}amino)benzoate]", "values": [{"measurement": "PAI-1 activity in blood vs placebo", "setting": "PAI-1; 60 mg/day oral, days 1 and 7", "value": "neither PAI-1 activity nor t-PA activity was different"}, {"measurement": "time after administration of maximal decrease in PAI-1 activity", "setting": "PAI-1; 120 mg/day oral", "value": 8, "unit": "h"}, {"measurement": "PAI-1 activity in blood", "setting": "PAI-1; 120 mg/day oral, days 1 and 7", "value": "decreased"}, {"measurement": "dosage at which PAI-1 is significantly inhibited and t-PA enhanced in humans", "setting": "PAI-1; oral", "value": "at least 120 mg per day"}, {"measurement": "mutagenesis effect", "setting": "[1]", "value": "no mutagenesis effect"}, {"measurement": "initial occlusion time vs vehicle group", "setting": "[2]; 0.3 mg/kg oral, P<0.05", "value": "Significant prolongation"}, {"measurement": "cumulative occlusion time vs vehicle group", "setting": "[2]; 0.1, 0.3, 1.0, 3.0 mg/kg oral, P<0.01, dose-dependent", "value": "significant reductions"}, {"measurement": "minimum effective dosage", "setting": "[2]; oral administration to monkeys", "value": 0.1, "unit": "mg/kg"}, {"measurement": "effect on the cardiovascular system or the respiratory system", "setting": "[3]", "value": "no effect"}, {"measurement": "effect on pregnancy, embryos and fetuses", "setting": "pregnant rats", "value": "no effect on maintenance of pregnancy, no embryolethal effect, no fetal growth suppressive effect, and no teratogenic effect"}, {"measurement": "no-observed-adverse-effect level for embryos and fetuses", "setting": "pregnant rats", "value": 1000, "unit": "mg/kg/day"}, {"measurement": "no-observed-adverse-effect level for the mothers", "setting": "pregnant rats", "value": 1000, "unit": "mg/kg/day"}, {"measurement": "effect on the central nervous system", "setting": "male Crl:CD(SD) rats", "value": "no effect"}, {"measurement": "no-observed-adverse-effect level in the parent animals, including fertility", "setting": "rats", "value": 1000, "unit": "mg/kg/day"}, {"measurement": "no-observed-adverse-effect level with respect to early embryogenesis", "setting": "rats", "value": 1000, "unit": "mg/kg/day"}]}
